Patent publication US20250311727A1, “SUBSTITUTED 2-AMINOAZINES AND SALTS THEREOF, AND USE THEREOF AS HERBICIDAL ACTIVE SUBSTANCES” (BAYER AKTIENGESELLSCHAFT, priority 2022, published 2025)

Legend:
Type in all cases: in vivo
Amaranthus retroflexus [1] = experiment: Post-emergence herbicidal efficacy at 320 g/ha, AMARE; details: rated visually after about 3 weeks vs untreated controls, 100% = plants have died
Outline: (§1)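 Visual rating about 3 weeks after treatment, scored against untreated plants on a scale from 0% (no effect) to 100% (dead). Application was foliar, as aqueous WP or EC suspension or emulsion with 0.5% additive at 600 L/ha, on one-leaf-stage greenhouse plants 2–3 weeks old, grown in sandy loam.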

Abutilon theophrasti [2] = experiment: Post-emergence herbicidal efficacy at 320 g/ha, ABUTH; details: rated visually after about 3 weeks vs untreated controls, 100% = plants have died
Outline: as §1

Stellaria media [3] = experiment: Post-emergence herbicidal efficacy at 320 g/ha, STEME; details: rated visually after about 3 weeks vs untreated controls, 100% = plants have died
Outline: as §1

Poa annua [4] = experiment: Pre-emergence herbicide efficacy at 320 g/ha, POAAN; details: scored visually after about 3 weeks vs untreated controls, 100% = plants have died
Outline: (§2)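 Compound formulated as wettable powder or emulsion concentrate is applied onto covered, sown sandy loam soil with 0.5% additive. Plants grow under greenhouse conditions, and after roughly 3 weeks weed control is rated by eye as a percentage relative to untreated pots.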

Viola tricolor [5] = experiment: Post-emergence herbicidal efficacy at 80 g/ha, VIOTR; details: rated visually after about 3 weeks vs untreated controls, 100% = plants have died
From the text: (§3) Unwanted plants/weeds: • ABUTH: Abutilon theophrasti • ALOMY: Alopecurus myosuroides • AMARE: Amaranthus retroflexus • DIGSA: Digitaria sanguinalis • ECHCG: Echinochloa crus-galli • KCHSC: Kochia scoparia • LOLRI: Lolium rigidum • MATIN: Matricaria inodora • POAAN: Poa annua • POLCO: Polygonum convolvulus • SETVI: Setaria viridis • STEME: Stellaria media • VERPE: Veronica persica • VIOTR: Viola tricolor A. Post-Emergence Herbicidal Efficacy at 320 g/ha
Seeds of monocotyledonous and dicotyledonous weeds and crop plants were placed in sandy loam in plastic or organic planting pots, covered with soil and cultivated in a greenhouse under controlled growth conditions. 2 to 3 weeks after sowing, the test plants were treated at the one-leaf stage. The compounds of the invention, formulated in the form of wettable powders (WP) or as emulsion concentrates (EC), were then sprayed onto the green parts of the plants as aqueous suspension or emulsion with addition of 0.5% additive at a water application rate of 600 l/ha (converted). After the test plants had been kept in the greenhouse under optimum growth conditions for about 3 weeks, the activity of the preparations was rated visually in comparison to untreated controls. For example, 100% activity=the plants have died, 0% activity=like control plants.
Tables B1 to B11 below show the effects of selected compounds of the general formula (I) according to Table 1 on various harmful plants and an application rate corresponding to 80 g/ha, which were obtained by the experimental procedure mentioned above.

Viola tricolor [6] = experiment: Pre-emergence herbicide efficacy at 80 g/ha, VIOTR
From the text: as §3
(§4) Seeds of monocotyledonous and dicotyledonous weed plants and crop plants were placed in plastic or organic planting pots and covered with soil. The compounds of the invention, formulated in the form of wettable powders (WP) or as emulsion concentrates (EC), were then applied to the surface of the covering soil as aqueous suspension or emulsion with addition of 0.5% additive at a water application rate equivalent to 600 l/ha. After the treatment, the pots were placed in a greenhouse and kept under good growth conditions for the test plants. After about 3 weeks, the efficacy of the preparations was scored visually in comparison with untreated controls as percentages. For example, 100% activity=the plants have died, 0% activity=like control plants.
(§5) Tables D1 to D12 below show the effects of selected compounds of the general formula (I) according to Table 1 on various harmful plants and an application rate corresponding to 80 g/ha, which were obtained by the experimental procedure mentioned above.

Lolium rigidum = experiment: Pre-emergence herbicide efficacy at 320 g/ha, LOLRI; details: scored visually after about 3 weeks vs untreated controls, 100% = plants have died
From the text: as §3
(§6) Seeds of mono- and dicotyledonous weed plants were placed in plastic pots in sandy loam soil (doubly sown with one species each of mono- or dicotyledonous weed plants per pot) and covered with soil. The compounds of the invention, formulated in the form of wettable powders (WP) or as emulsion concentrates (EC), were then applied to the surface of the covering soil as aqueous suspension or emulsion with addition of 0.5% additive at a water application rate of 600 litres per hectare (converted). After the treatment, the pots were placed in a greenhouse and kept under good growth conditions for the test plants. After about 3 weeks, the efficacy of the preparations was scored visually in comparison with untreated controls as percentages.
(§7) For example, 100% activity=the plants have died, 0% activity=like control plants.
(§8) Tables C1 to C12 below show the effects of selected compounds of the general formula (I) according to Table 1 on various harmful plants and at an application rate corresponding to 320 g/ha, which were obtained by the trial procedure specified above.

Kochia scoparia [7] = experiment: Pre-emergence herbicide efficacy at 80 g/ha, KCHSC; details: scored visually after about 3 weeks vs untreated controls, 100% = plants have died
From the text: as §3, §4, §5

Veronica persica [8] = experiment: Post-emergence herbicidal efficacy at 320 g/ha, VERPE; details: rated visually after about 3 weeks vs untreated controls, 100% = plants have died
Outline: as §1

Setaria viridis [9] = experiment: Post-emergence herbicidal efficacy at 320 g/ha, SETVI; details: rated visually after about 3 weeks vs untreated controls, 100% = plants have died
From the text: as §3
(§9) Seeds of mono- and dicotyledonous weed plants were placed in plastic pots in sandy loam soil (doubly sown with in each case one species of mono- or dicotyledonous weed plants per pot), covered with soil and cultivated in a greenhouse under controlled growth conditions. 2 to 3 weeks after sowing, the test plants were treated at the one-leaf stage. The compounds of the invention, formulated in the form of wettable powders (WP) or as emulsion concentrates (EC), were applied to the green parts of the plants as aqueous suspension or emulsion with addition of 0.5% additive at a water application rate equivalent to 600 litres per hectare. After the test plants had been kept in the greenhouse under optimum growth conditions for about 3 weeks, the activity of the preparations was rated visually in comparison to untreated controls.
as §7
(§10) Tables A1 to A10 below show the effects of selected compounds of the general formula (I) according to Table 1 on various harmful plants and at an application rate corresponding to 320 g/ha, which were obtained by the trial procedure specified above.

Veronica persica [10] = experiment: Pre-emergence herbicide efficacy at 320 g/ha, VERPE; details: scored visually after about 3 weeks vs untreated controls, 100% = plants have died
Outline: as §2

Setaria viridis [11] = experiment: Pre-emergence herbicide efficacy at 80 g/ha, SETVI
From the text: as §3, §4, §5

Amaranthus retroflexus [12] = experiment: Pre-emergence herbicide efficacy at 80 g/ha, AMARE; details: scored visually after about 3 weeks vs untreated controls, 100% = plants have died
From the text: as §3, §4, §5

Echinochloa crus-galli [13] = experiment: Post-emergence herbicidal efficacy at 320 g/ha, ECHCG; details: rated visually after about 3 weeks vs untreated controls, 100% = plants have died
Outline: as §1

Amaranthus retroflexus [14] = experiment: Pre-emergence herbicide efficacy at 320 g/ha, AMARE; details: scored visually after about 3 weeks vs untreated controls, 100% = plants have died
Outline: as §2

Kochia scoparia [15] = experiment: Pre-emergence herbicide efficacy at 320 g/ha, KCHSC; details: scored visually after about 3 weeks vs untreated controls, 100% = plants have died
Outline: as §2

Polygonum convolvulus = experiment: Pre-emergence herbicide efficacy at 80 g/ha, POLCO; details: scored visually after about 3 weeks vs untreated controls, 100% = plants have died
From the text: as §3, §4, §5

Digitaria sanguinalis [16] = experiment: Pre-emergence herbicide efficacy at 80 g/ha, DIGSA; details: scored visually after about 3 weeks vs untreated controls, 100% = plants have died
From the text: as §3, §4, §5

Abutilon theophrasti [17] = experiment: Pre-emergence herbicide efficacy at 320 g/ha, ABUTH; details: scored visually after about 3 weeks vs untreated controls, 100% = plants have died
From the text: as §3, §6, §7, §8

Kochia scoparia [18] = experiment: Post-emergence herbicidal efficacy at 80 g/ha, KCHSC; details: rated visually after about 3 weeks vs untreated controls, 100% = plants have died
Outline: (§11)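 Post-emergence greenhouse test: one-leaf weeds sprayed with formulated compound (0.5% additive, 600 l/ha), visually rated about 3 weeks later against untreated controls.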

Kochia scoparia [19] = experiment: Post-emergence herbicidal efficacy at 320 g/ha, KCHSC; details: rated visually after about 3 weeks vs untreated controls, 100% = plants have died
Outline: as §1

Stellaria media [20] = experiment: Pre-emergence herbicide efficacy at 320 g/ha, STEME; details: scored visually after about 3 weeks vs untreated controls, 100% = plants have died
Outline: as §2

Veronica persica [21] = experiment: Pre-emergence herbicide efficacy at 80 g/ha, VERPE
From the text: as §3, §4, §5

Poa annua [22] = experiment: Post-emergence herbicidal efficacy at 320 g/ha, POAAN; details: rated visually after about 3 weeks vs untreated controls, 100% = plants have died
From the text: as §3, §9, §7, §10

Amaranthus retroflexus [23] = experiment: Post-emergence herbicidal efficacy at 80 g/ha, AMARE; details: rated visually after about 3 weeks vs untreated controls, 100% = plants have died
Outline: as §11

Matricaria inodora = experiment: Pre-emergence herbicide efficacy at 320 g/ha, MATIN; details: scored visually after about 3 weeks vs untreated controls, 100% = plants have died
From the text: as §3, §6, §7, §8

Echinochloa crus-galli [24] = experiment: Pre-emergence herbicide efficacy at 320 g/ha, ECHCG; details: scored visually after about 3 weeks vs untreated controls, 100% = plants have died
Outline: as §2

Veronica persica [25] = experiment: Post-emergence herbicidal efficacy at 80 g/ha, VERPE; details: rated visually after about 3 weeks vs untreated controls, 100% = plants have died
Outline: as §11

Digitaria sanguinalis [26] = experiment: Post-emergence herbicidal efficacy at 320 g/ha, DIGSA; details: rated visually after about 3 weeks vs untreated controls, 100% = plants have died
From the text: as §3, §9, §7, §10

Digitaria sanguinalis [27] = experiment: Pre-emergence herbicide efficacy at 320 g/ha, DIGSA; details: scored visually after about 3 weeks vs untreated controls, 100% = plants have died
Outline: as §2

Setaria viridis [28] = experiment: Pre-emergence herbicide efficacy at 320 g/ha, SETVI; details: scored visually after about 3 weeks vs untreated controls, 100% = plants have died
Outline: as §2

SMILES	Post-emergence efficacy at 320 g/ha against AMARE in % (Amaranthus retroflexus [1])	Pre-emergence efficacy at 320 g/ha against POAAN in % (Poa annua [4])	Pre-emergence efficacy at 320 g/ha against LOLRI in % (Lolium rigidum)	Pre-emergence efficacy at 320 g/ha against VERPE in % (Veronica persica [10])	Post-emergence efficacy at 320 g/ha against ECHCG in % (Echinochloa crus-galli [13])	Pre-emergence efficacy at 320 g/ha against AMARE in % (Amaranthus retroflexus [14])	Pre-emergence efficacy at 320 g/ha against KCHSC in % (Kochia scoparia [15])	Post-emergence efficacy at 320 g/ha against KCHSC in % (Kochia scoparia [19])	Pre-emergence efficacy at 320 g/ha against STEME in % (Stellaria media [20])	Pre-emergence efficacy at 320 g/ha against DIGSA in % (Digitaria sanguinalis [27])	Pre-emergence efficacy at 320 g/ha against SETVI in % (Setaria viridis [28])	further results
N#Cc1cccc(Nc2ncc(Cl)cn2)c1-n1cc(C(F)(F)F)cn1 [Example 1-38, 3-(5-Chloropyrimidin-2-ylamino)-2-(4-(trifluoromethyl)-1H-pyrazol-1-yl)benzonitrile]	100%	100%	90%	100%	100%	100%	90%	100%	100%	100%	100%	Post-emergence efficacy at 320 g/ha against ABUTH in % (Abutilon theophrasti [2]): 90%; Post-emergence efficacy at 320 g/ha against STEME in % (Stellaria media [3]): 100%; Post-emergence efficacy at 80 g/ha against VIOTR in % (Viola tricolor [5]): 100%; Pre-emergence efficacy against VIOTR (Viola tricolor [6]): 100%; Pre-emergence efficacy at 80 g/ha against KCHSC in % (Kochia scoparia [7]): 100%; Post-emergence efficacy at 320 g/ha against VERPE in % (Veronica persica [8]): 100%; Post-emergence efficacy at 320 g/ha against SETVI in % (Setaria viridis [9]): 90%; Pre-emergence efficacy against SETVI (Setaria viridis [11]): 100%; Pre-emergence efficacy at 80 g/ha against AMARE in % (Amaranthus retroflexus [12]): 100%; Pre-emergence efficacy at 80 g/ha against POLCO in % (Polygonum convolvulus): 100%; Pre-emergence efficacy at 80 g/ha against DIGSA in % (Digitaria sanguinalis [16]): 100%; Pre-emergence efficacy at 320 g/ha against ABUTH in % (Abutilon theophrasti [17]): 90%; Post-emergence efficacy at 80 g/ha against KCHSC in % (Kochia scoparia [18]): 100%; Pre-emergence efficacy against VERPE (Veronica persica [21]): 90%; Post-emergence efficacy at 320 g/ha against POAAN in % (Poa annua [22]): 90%; Post-emergence efficacy at 80 g/ha against AMARE in % (Amaranthus retroflexus [23]): 100%; Pre-emergence efficacy at 320 g/ha against MATIN in % (Matricaria inodora): 100%; Pre-emergence efficacy at 320 g/ha against ECHCG in % (Echinochloa crus-galli [24]): 90%; Post-emergence efficacy at 80 g/ha against VERPE in % (Veronica persica [25]): 90%; Post-emergence efficacy at 320 g/ha against DIGSA in % (Digitaria sanguinalis [26]): 90%
Fc1cnc(Nc2cccc(F)c2-n2cc(C(F)(F)F)cn2)nc1 [Example 1-48]	100%	100%	100%	100%	90%	100%	100%	90%	100%	100%	100%	
